Test system: ID8 cells
Experiment: Inhibition assay of cellular uptake of OCTL14
Type: cell-based, murine
Conditions: pre-blocked 5-30 min, then 2 μM OCTL14 for 30 min

Structure (SMILES)	change in cellular uptake of OCTL14 after pretreatment with inhibitor
O=C1OC(c2ccc(O)c(S(=O)(=O)O)c2)(c2ccc(O)c(S(=O)(=O)O)c2)c2c(Br)c(Br)c(Br)c(Br)c21 [BSP, bromsulphthalein]	did not result in significant changes in cellular uptake
O=C(N/N=C/c1cc(O)c(O)cc1O)c1cc2ccccc2cc1O [Dyngo 4a]	did not result in any appreciable change in cellular uptake
CN(C)C(=O)CCSC(SCCC(=O)O)c1cccc(/C=C/c2ccc3ccc(Cl)cc3n2)c1 (stereo not shown) [MK-571]	little change in cellular uptake
O=C1NC(=NS(=O)(=O)c2cccc3ccccc23)S/C1=C\c1ccc(Br)cc1 [Pitstop 2]	did not result in any appreciable change in cellular uptake
